Experiment: Compound was evaluated for its ability to inhibit the NNRTI HIV-1 enzyme by 50% using enzyme assay

## O=C1Nc2ccc(Cl)cc2[C@@](C#CC2CC2)(C(F)(F)F)N1
  IC50: 31 nM
